One experiment addresses T1, Coagulation factor XII (Homo sapiens, UniProt P00748).
T1 sequence (P00748 whole entry): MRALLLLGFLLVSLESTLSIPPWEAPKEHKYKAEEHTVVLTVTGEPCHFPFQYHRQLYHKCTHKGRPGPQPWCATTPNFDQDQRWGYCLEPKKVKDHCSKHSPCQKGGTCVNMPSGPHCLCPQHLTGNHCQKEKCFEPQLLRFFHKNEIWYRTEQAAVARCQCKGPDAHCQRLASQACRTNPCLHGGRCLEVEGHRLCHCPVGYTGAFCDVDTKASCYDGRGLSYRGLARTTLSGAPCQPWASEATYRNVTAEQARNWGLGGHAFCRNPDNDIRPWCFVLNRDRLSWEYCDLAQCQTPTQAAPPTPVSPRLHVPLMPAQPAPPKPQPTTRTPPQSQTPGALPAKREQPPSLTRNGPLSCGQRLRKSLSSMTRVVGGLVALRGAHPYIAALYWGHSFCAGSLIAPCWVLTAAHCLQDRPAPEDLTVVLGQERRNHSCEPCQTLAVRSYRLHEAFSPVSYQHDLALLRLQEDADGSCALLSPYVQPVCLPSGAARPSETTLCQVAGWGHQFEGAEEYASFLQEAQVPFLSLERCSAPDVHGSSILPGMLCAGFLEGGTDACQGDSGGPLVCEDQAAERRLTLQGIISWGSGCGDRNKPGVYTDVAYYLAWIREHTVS
Type of experiment: functional.

For experiment [1], the target named is DNA dC->dU-editing enzyme APOBEC-3A (Homo sapiens, UniProt P31941). The experiment is described as follows: Dose Response confirmation of small molecule APOBEC3A DNA Deaminase Inhibitors via a fluorescence-based single-stranded DNA deaminase assay. [Related pubchem assays (depositor defined):AID493011, AID493024]. Type of experiment: functional.
Experiment [2] has as its target T2, Short transient receptor potential channel 4 (Mus musculus, UniProt Q9QUQ5).
T2 sequence (Q9QUQ5 whole entry): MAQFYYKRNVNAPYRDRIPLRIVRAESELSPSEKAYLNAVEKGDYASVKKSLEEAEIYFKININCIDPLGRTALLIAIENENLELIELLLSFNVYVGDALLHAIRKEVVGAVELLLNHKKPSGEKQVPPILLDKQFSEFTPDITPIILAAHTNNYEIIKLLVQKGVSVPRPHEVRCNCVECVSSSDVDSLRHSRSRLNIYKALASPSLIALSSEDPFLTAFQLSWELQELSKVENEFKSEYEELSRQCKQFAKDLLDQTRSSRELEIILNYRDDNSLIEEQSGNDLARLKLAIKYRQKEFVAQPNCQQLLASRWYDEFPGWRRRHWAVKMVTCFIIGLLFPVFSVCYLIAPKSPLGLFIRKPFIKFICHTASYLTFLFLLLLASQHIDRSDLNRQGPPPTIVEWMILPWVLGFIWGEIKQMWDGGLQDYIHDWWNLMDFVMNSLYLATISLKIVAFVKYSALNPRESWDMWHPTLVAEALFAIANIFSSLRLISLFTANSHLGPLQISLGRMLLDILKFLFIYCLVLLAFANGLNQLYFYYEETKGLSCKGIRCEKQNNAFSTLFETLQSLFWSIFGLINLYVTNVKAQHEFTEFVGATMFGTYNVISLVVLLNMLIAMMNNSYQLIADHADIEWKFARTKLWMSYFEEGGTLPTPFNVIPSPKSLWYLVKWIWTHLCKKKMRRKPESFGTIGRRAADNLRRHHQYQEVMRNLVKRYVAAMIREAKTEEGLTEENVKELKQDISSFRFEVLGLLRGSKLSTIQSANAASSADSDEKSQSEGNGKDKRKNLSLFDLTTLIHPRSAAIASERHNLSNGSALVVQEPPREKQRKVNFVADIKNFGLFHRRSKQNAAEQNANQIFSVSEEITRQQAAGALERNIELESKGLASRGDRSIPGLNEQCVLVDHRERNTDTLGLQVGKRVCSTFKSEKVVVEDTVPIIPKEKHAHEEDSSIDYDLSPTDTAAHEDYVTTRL
Nature of the experiment: block of DAMGO-driven TRPC4 calcium entry – cell-based, HEK293 TRPC4/mu-opioid, Fluo-4 calcium, dose response (AID 434942).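 Note: potency of inhibitors blocking the TRPC4 calcium response.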 Type of experiment: functional.

The target of experiment [3] is DNA dC->dU-editing enzyme APOBEC-3G (Homo sapiens, UniProt Q9HC16). It is filed as functional.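 Note: Dose-response counterscreen measuring inhibition of APOBEC3G DNA deaminase activity, run while confirming APOBEC3A inhibitors.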
Experiment [4] has as its target T3, Carboxy-terminal domain RNA polymerase II polypeptide A small phosphatase 1 (Homo sapiens, UniProt Q9GZU7).
T3 sequence (Q9GZU7 whole entry): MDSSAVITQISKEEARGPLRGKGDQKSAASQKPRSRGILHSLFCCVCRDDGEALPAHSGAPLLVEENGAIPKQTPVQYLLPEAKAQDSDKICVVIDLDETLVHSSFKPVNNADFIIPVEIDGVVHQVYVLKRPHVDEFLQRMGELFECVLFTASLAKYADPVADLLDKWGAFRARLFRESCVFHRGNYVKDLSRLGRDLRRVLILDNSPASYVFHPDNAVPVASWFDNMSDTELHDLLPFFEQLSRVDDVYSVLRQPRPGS
The experiment is described as follows: CTDSP1 inhibitors, concentration-response, biochemical, absorbance readout, ultra-high-throughput screen actives (AID 540297). Type of experiment: functional.

In experiment [5] the target is Dual specificity tyrosine-phosphorylation-regulated kinase 1A (Rattus norvegicus, UniProt Q63470). It is filed as biochemical, Homo sapiens.
For experiment [6], the target named is T2, Short transient receptor potential channel 4. Nature of the experiment: calcium entry via TRPC4 opening agents – cell-based, HEK293 TRPC4/mu-opioid, Fluo-4 calcium, dose response (AID 434937). Type of experiment: functional.
Experiment [7] concerns the target T4, High affinity choline transporter 1 (Homo sapiens, UniProt Q9GZV3).
T4 sequence (Q9GZV3 whole entry): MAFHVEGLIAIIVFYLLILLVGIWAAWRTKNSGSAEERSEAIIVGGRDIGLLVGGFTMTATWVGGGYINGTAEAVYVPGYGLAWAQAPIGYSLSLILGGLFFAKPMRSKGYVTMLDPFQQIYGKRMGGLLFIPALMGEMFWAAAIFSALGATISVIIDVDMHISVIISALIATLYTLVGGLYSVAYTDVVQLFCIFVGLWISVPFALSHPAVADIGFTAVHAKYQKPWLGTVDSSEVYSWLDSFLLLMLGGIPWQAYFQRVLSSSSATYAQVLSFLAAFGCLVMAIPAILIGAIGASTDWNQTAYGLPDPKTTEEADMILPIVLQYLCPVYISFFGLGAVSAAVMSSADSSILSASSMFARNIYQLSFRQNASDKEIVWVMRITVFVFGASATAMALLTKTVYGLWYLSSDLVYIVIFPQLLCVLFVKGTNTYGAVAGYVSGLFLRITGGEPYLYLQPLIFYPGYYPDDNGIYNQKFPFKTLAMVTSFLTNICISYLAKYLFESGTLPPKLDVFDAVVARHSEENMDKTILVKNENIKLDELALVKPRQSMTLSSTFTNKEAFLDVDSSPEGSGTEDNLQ
Nature of the experiment: human choline transporter blockers, potency – cell-based, 5-point CRC, membrane potential dye, dose response (AID 504840). Type of experiment: functional.

The target of experiment [8] is Eukaryotic translation initiation factor 4H (Homo sapiens, UniProt Q15056). Nature of the experiment: eIF4H binding inhibition – biochemical, uHTS, fluorescence polarization, translation initiation inhibitor project, primary screen (AID 2012).
Experiment [9] has as its target Polyadenylate-binding protein 1 (Homo sapiens, UniProt P11940). The experiment is described as follows: blockers of PABP interaction with poly(A) – biochemical, fluorescence polarization, […] (AID 2014). (In general: In fluorescence polarisation assays a small probe gives low polarisation when free and higher when bound to something large.)

Each structure is given as a SMILES string. Activity calls are given as the source filed them.

DNA dC->dU-editing enzyme APOBEC-3A, sequence (P31941 whole entry): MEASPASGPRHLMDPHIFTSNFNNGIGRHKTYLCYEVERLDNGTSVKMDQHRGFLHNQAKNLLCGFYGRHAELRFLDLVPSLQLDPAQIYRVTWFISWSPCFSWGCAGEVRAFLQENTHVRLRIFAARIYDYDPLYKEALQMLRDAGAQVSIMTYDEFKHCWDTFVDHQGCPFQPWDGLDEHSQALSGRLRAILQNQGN
DNA dC->dU-editing enzyme APOBEC-3G, sequence (Q9HC16 whole entry, the tested form may be a part): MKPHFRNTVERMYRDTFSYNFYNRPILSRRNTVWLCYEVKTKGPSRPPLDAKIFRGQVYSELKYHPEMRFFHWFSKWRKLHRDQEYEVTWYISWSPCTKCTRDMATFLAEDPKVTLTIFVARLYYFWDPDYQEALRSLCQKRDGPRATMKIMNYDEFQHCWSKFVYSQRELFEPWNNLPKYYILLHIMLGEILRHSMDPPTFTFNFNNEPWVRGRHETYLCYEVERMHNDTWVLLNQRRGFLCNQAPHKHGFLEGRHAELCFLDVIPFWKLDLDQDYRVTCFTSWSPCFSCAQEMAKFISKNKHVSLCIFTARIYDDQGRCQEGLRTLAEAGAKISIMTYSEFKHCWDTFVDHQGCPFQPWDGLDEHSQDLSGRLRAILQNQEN
Polyadenylate-binding protein 1, sequence (P11940 whole entry): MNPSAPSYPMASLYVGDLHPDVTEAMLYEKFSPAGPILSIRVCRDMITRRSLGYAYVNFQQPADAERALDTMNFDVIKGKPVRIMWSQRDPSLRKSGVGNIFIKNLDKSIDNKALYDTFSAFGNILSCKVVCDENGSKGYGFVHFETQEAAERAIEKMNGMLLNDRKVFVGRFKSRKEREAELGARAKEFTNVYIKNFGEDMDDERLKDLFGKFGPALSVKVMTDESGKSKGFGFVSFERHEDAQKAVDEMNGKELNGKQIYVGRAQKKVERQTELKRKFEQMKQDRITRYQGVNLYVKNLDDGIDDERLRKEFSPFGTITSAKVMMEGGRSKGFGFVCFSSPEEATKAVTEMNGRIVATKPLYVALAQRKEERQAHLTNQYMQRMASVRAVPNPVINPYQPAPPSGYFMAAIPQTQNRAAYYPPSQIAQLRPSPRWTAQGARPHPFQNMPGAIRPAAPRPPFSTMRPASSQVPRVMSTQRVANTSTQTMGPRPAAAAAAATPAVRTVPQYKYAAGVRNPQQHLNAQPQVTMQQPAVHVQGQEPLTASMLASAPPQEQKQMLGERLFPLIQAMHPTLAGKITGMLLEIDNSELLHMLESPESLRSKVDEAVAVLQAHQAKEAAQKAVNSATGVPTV

With `O=C(NCc1ccco1)c1ccc2c(c1)CCO2`, the IC50 (in general, the point on the concentration scale where inhibition reaches its midpoint) on Coagulation factor XII is > 50 µM (inactive).

`Fc1ccccc1Sc1ccccc1CNC1=NCCN1`: the IC50 in experiment [1] is 1.35 µM (active); in [3] it was 2.77 µM (active); in experiment [4], 4.12 µM (active). Also, in experiment [2], the concentration for a half-maximal effect (EC50) (commonly the concentration that produces a half-maximal response) was 0.944 µM (active).

In the case of `CCCN(CCC)CCNC(=O)c1cc2c(=O)n(C)c3ccccc3c2n1C`, the AC50 (in general, the concentration at which the activity in the assay is half-maximal) in [5] is 13.4 µM (active).

For `Cc1ccc2c(C)c(C(=O)Nc3nnc(C)s3)oc2c1`, the IC50 on Coagulation factor XII was > 50 µM (inactive).

On to `Cc1c(C)n(CCC#N)c2ccccc12`, for which the IC50 on Coagulation factor XII was > 50 µM (inactive).

Regarding `CCOC(=O)C1(CCOc2ccccc2)CCN(Cc2cc(OC)ccc2OC)CC1`, the EC50 in experiment [6] is 3.76 µM (active).

Consider `N=C1C[N+](CC23CC4CC(CC(C4)C2)C3)=NO1`, for which, in experiment [6], the EC50 is 1.06 µM (active). The IC50 in experiment [7] was 13.5 µM (active).

Regarding `CC/C(=N\NC(=S)NC(C)C)c1ccc(OC(F)F)cc1`, the IC50 at Coagulation factor XII is > 50 µM (inactive).

On to `C[n+]1cccc(/C=N/NC(=O)CC23CC4CC(CC(C4)C2)C3)c1`, for which the IC50 is > 100 µM (inactive) in experiment [8], 5.14 µM (active) in experiment [9], 3.04 µM (active) in [1] and 3.28 µM (active) in experiment [3].

Regarding `COc1ccc2[nH]c3c(c2c1)CCNC3=O`, the AC50 in experiment [5] was 0.845 µM (active).
